Data: ChEMBL document CHEMBL5625263, “Discovery of a novel series of selective macrocyclic PKCTheta inhibitors” (Bioorg Med Chem Lett, 2024)
Converted amounts (≈) assume the structure as drawn.

Tests used:
[1] = biological target: T1, Protein kinase C theta type (Homo sapiens, UniProt Q04759); test: Inhibition of PKC theta in TCR-stimulated human PBMC assessed as inhibition of IL-2 release; format: cell-based
[2] = biological target: T1, Protein kinase C theta type; test: Inhibition of PKC theta (unknown origin) in presence of ATP at Km
[3] = biological target: T2, Protein kinase C alpha type (Homo sapiens, UniProt P17252); test: Inhibition of PKC alpha (unknown origin) in presence of ATP at Km
[4] = biological target: T2, Protein kinase C alpha type; test: Inhibition of PKC alpha (unknown origin) in presence of 1 mM ATP
[5] = Metabolic stability in human hepatocytes assessed as intrinsic clearance measured per 10^6 cells; format: ADME, cell-based, Hepatocyte; settings: read-out: CLH
[6] = biological target: T1, Protein kinase C theta type; test: Inhibition of PKC theta (unknown origin) in presence of 1 mM ATP
[7] = Efflux ratio of apparent permeability across basolateral to apical side over apical to basolateral side in human Caco-2 cells; format: ADME, cell-based
[8] = Apparent permeability of a compound in human Caco-2 cells; format: ADME, cell-based
[9] = biological target: Voltage-gated inwardly rectifying potassium channel KCNH2 (Homo sapiens, UniProt Q12809); test: Inhibition of hERG; format: toxicity
Chain of Voltage-gated inwardly rectifying potassium channel KCNH2 (Q12809 whole entry): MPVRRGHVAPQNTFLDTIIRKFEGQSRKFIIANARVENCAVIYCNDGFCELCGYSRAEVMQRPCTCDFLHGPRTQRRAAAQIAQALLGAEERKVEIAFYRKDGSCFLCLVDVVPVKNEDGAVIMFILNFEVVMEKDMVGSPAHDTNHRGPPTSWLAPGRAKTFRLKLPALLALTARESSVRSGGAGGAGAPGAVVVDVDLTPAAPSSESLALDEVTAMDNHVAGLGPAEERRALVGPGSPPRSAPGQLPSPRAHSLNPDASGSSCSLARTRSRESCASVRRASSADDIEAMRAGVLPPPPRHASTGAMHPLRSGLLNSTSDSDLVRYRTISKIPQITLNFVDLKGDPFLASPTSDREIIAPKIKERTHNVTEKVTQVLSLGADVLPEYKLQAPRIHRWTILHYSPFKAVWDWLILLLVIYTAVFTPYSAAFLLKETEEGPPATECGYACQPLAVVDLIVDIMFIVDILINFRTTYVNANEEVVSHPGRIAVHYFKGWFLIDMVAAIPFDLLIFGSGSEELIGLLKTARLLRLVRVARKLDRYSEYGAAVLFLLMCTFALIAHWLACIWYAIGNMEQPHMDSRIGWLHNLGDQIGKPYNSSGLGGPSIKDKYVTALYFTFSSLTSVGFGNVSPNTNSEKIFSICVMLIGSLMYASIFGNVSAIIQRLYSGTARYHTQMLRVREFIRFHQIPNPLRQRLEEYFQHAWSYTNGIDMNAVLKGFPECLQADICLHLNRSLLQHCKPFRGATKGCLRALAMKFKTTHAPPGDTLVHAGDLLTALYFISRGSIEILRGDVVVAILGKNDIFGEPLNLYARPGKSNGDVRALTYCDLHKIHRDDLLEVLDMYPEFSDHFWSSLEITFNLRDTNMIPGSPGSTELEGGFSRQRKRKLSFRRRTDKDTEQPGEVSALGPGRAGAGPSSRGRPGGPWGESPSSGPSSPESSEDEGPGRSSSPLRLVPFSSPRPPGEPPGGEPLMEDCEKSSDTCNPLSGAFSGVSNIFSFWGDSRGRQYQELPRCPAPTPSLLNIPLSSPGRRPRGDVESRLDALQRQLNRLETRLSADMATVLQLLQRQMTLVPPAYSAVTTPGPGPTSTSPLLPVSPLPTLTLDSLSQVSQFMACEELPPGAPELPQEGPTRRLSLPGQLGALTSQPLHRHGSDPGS

[10] = Solubility of the compound; format: physicochemical
[11] = Volume of distribution at steady state in rat; format: ADME; settings: in vivo, read-out: Vdss
[12] = Clearance in rat; format: ADME; settings: in vivo
[13] = Oral bioavailability in rat; format: ADME, organism-based; settings: in vivo
[14] = Selectivity ratio of inhibition of GSK3beta (unknown origin) to inhibition of PKC theta (unknown origin) at 1 mM ATP concentration
[15] = Selectivity ratio of inhibition of FLT3 (unknown origin) to inhibition of PKC theta (unknown origin) at 1 mM ATP concentration
[16] = Selectivity ratio of inhibition of PKCdelta (unknown origin) to inhibition of PKC theta (unknown origin) at 1 mM ATP concentration
[17] = Selectivity ratio of inhibition of MSK1 (unknown origin) to inhibition of PKC theta (unknown origin) at 1 mM ATP concentration
[18] = Selectivity ratio of inhibition of PKACalpha (unknown origin) to inhibition of PKC theta (unknown origin) at 1 mM ATP concentration
[19] = Selectivity ratio of inhibition of AURB (unknown origin) to inhibition of PKC theta (unknown origin) at 1 mM ATP concentration
[20] = Selectivity ratio of inhibition of HGK (unknown origin) to inhibition of PKC theta (unknown origin) at 1 mM ATP concentration
[21] = Selectivity ratio of inhibition of PKCeta (unknown origin) to inhibition of PKC theta (unknown origin) at 1 mM ATP concentration
[22] = Selectivity ratio of inhibition of RSK3 (unknown origin) to inhibition of PKC theta (unknown origin) at 1 mM ATP concentration
[23] = Selectivity ratio of inhibition of CLK1 (unknown origin) to inhibition of PKC theta (unknown origin) at 1 mM ATP concentration
[24] = Selectivity ratio of inhibition of PKCbeta1 (unknown origin) to inhibition of PKC theta (unknown origin) at 1 mM ATP concentration
[25] = Selectivity ratio of inhibition of PI3K-C2beta (unknown origin) to inhibition of PKC theta (unknown origin) at 1 mM ATP concentration
[26] = Selectivity ratio of inhibition of TRKA (unknown origin) to inhibition of PKC theta (unknown origin) at 1 mM ATP concentration

T1 sequence (Q04759 whole entry): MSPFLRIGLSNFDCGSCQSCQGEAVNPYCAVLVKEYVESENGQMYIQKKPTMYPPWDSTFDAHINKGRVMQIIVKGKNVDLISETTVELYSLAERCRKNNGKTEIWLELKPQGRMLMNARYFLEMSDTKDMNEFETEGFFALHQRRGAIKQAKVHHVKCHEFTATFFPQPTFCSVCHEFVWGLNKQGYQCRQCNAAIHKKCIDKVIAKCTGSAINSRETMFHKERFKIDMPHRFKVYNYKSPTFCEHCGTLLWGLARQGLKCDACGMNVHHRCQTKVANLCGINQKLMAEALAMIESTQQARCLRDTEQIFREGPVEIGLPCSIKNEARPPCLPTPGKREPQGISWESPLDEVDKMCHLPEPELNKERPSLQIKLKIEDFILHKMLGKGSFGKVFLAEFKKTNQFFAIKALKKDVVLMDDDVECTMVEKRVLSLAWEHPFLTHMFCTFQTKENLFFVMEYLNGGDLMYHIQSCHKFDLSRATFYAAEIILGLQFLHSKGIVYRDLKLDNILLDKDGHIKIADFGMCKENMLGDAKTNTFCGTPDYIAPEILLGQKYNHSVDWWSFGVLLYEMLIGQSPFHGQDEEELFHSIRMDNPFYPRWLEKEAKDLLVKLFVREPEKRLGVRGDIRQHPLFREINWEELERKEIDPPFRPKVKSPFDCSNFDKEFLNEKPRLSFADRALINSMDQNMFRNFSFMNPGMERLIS

SMILES	IC50 [1] [nM]	IC50 [2] [nM]	IC50 [3] [nM]	IC50 [4] [nM]	hepatocyte CLint [5] [µL/min/1e6 cells]	IC50 [6] [nM]	efflux ratio [7]	Papp [8] [×10⁻⁶ cm/s]	solubility [10] [µM]	also measured
CC1CCCOc2ccnc3[nH]c(=O)n(c23)-c2ccc3nccc1c3n2 (configuration not stated)	4.2	< 0.5	59	550	36	< 0.5	0.8	31	–	IC50 [9]: 24000 nM
CC1CCCOc2nc(c(-c3nnc[nH]3)cc2C(N)=O)-n2c(=O)[nH]c3nccc(c32)O1 (configuration not stated)	160	3.3	1100	–	–	–	–	–	–	–
CC1CCC(C)n2ccc(=O)c3cc(F)c(nc32)-n2c(=O)[nH]c3nccc(c32)O1 (configuration not stated)	17	< 0.5	49	550	< 4	< 0.5	13	2.1	271 (≈ 107 µg/mL)	Vd [11]: 3.2 L/kg; clearance [12]: 41 mL/min/kg; bioavailability [13]: 40%
CC1CCCOc2ccnc3[nH]c(=O)n(c23)-c2nc(c(C(N)=O)cc2-c2ncc[nH]2)O1 (configuration not stated)	15	< 1	270	2200	22	1.2	–	–	–	–
CC1CCCOc2cccc(n2)-n2c(=O)[nH]c3nccc(c32)O1 (configuration not stated)	236	5	1900	> 10000	6.1	61	0.6	31	32 (≈ 9.99 µg/mL)	–
CC1CCCOc2nc(c(-c3cnc[nH]3)cc2C(N)=O)-n2c(=O)[nH]c3nccc(c32)O1 (configuration not stated)	89	1.4	920	6700	–	15	–	–	–	–
NC(=O)c1ccc2nc1OCCCCOc1ccnc3[nH]c(=O)n-2c13	–	–	–	–	–	–	–	0.2	5.5 (≈ 1.88 µg/mL)	–
CC1CCCOc2nc(c(-c3ccn[nH]3)cc2C(N)=O)-n2c(=O)[nH]c3nccc(c32)O1 (configuration not stated)	–	47	8200	–	–	–	–	–	–	–
CC1CCC(C)n2ccc(=O)c3ccc(nc32)-n2c(=O)[nH]c3nccc(c32)O1 (configuration not stated)	26	< 0.5	140	790	< 4	1.6	8	4	123 (≈ 46.4 µg/mL)	Selectivity ratio [14]: 4540; Selectivity ratio [15]: 1310; Selectivity ratio [16]: 346; Selectivity ratio [17]: 945; Vd [11]: 2.7 L/kg; Selectivity ratio [18]: > 6250; Selectivity ratio [19]: 2850; clearance [12]: 36 mL/min/kg; Selectivity ratio [20]: > 6250; Selectivity ratio [21]: 482; Selectivity ratio [22]: 4910; Selectivity ratio [23]: > 6250; bioavailability [13]: 20%; Selectivity ratio [24]: 262; Selectivity ratio [25]: 3050; Selectivity ratio [26]: 2200
CC1CCN(C)c2c(F)cnc3cc(F)c(nc23)-n2c(=O)[nH]c3nccc(c32)O1 (configuration not stated)	9.1	< 0.5	56	934	4	1.2	1	18	–	Selectivity ratio [14]: 187; Selectivity ratio [15]: 174; Selectivity ratio [16]: 166; Selectivity ratio [17]: 576; Selectivity ratio [18]: 754; Selectivity ratio [19]: > 8330; Selectivity ratio [20]: 36; Selectivity ratio [21]: 62; Selectivity ratio [22]: 649; Selectivity ratio [23]: 858; bioavailability [13]: 58%; IC50 [9]: 13000 nM; Selectivity ratio [24]: 709; Selectivity ratio [25]: 332; Selectivity ratio [26]: 353
CC1CCCOc2ccnc3[nH]c(=O)n(c23)-c2cccc(n2)O1 (configuration not stated)	28	< 0.5	259	2200	32	3.6	0.7	32	180 (≈ 56.2 µg/mL)	–
CC1CCCn2ccc(=O)c3ccc(nc32)-n2c(=O)[nH]c3nccc(c32)O1 (configuration not stated)	52	1.2	880	6600	< 4	15	23	1.3	275 (≈ 99.9 µg/mL)	–
CN1CCN(c2nc(C3=C(c4c[nH]c5ccccc45)C(=O)NC3=O)c3ccccc3n2)CC1 [SOTRASTAURIN]	49	0.7	–	–	–	3.4	–	–	–	–
CC1CCC(C)Oc2ccnc3[nH]c(=O)n(c23)-c2nc(c(C(N)=O)cc2F)O1 (configuration not stated)	12	< 0.5	49	620	< 4	0.9	7	8	145 (≈ 56.2 µg/mL)	bioavailability [13]: 69%
CC1CCOc2ccnc3ccc(nc23)-n2c(=O)[nH]c3nccc(c32)O1 (configuration not stated)	255	4.2	980	7900	< 4	54	1	26	–	IC50 [9]: > 30000 nM
CC1CCn2ccc(=O)c3cc(F)c(nc32)-n2c(=O)[nH]c3nccc(c32)O1 (configuration not stated)	27	< 0.5	440	3700	< 4	5	53	0.5	274 (≈ 101 µg/mL)	–
CC1CCN(C)c2ccnc3cc(F)c(nc23)-n2c(=O)[nH]c3nccc(c32)O1 (configuration not stated)	1.9	< 0.5	25	190	10	< 0.5	–	–	–	IC50 [9]: 2400 nM
CC1CCC(C)c2ccnc3ccc(nc23)-n2c(=O)[nH]c3nccc(c32)O1 (configuration not stated)	28	< 0.5	65	840	19	3.9	–	–	–	–
CC1CCN(C)c2ccnc3ccc(nc23)-n2c(=O)[nH]c3nccc(c32)O1 (configuration not stated)	6.5	< 0.5	82	940	< 4	1	2	14	–	IC50 [9]: < 400 nM

More lines, main results first:

IC50 [1] [nM]	IC50 [2] [nM]	IC50 [3] [nM]	IC50 [4] [nM]	hepatocyte CLint [5] [µL/min/1e6 cells]	IC50 [6] [nM]	efflux ratio [7]	Papp [8] [×10⁻⁶ cm/s]	solubility [10] [µM]	SMILES	also measured
–	–	–	–	–	–	–	2.2	16 (≈ 5.67 µg/mL)	CN1CCCCOc2ccnc3[nH]c(=O)n(c23)-c2ccc(C(N)=O)c1n2	–
–	–	–	–	–	–	–	0.7	12 (≈ 4.55 µg/mL)	CC1(C)NC(=O)c2ccc3cc2N1CCCCOc1ccnc2[nH]c(=O)n-3c12	–
–	–	–	–	–	–	–	1.3	1.9 (≈ 0.696 µg/mL)	CC1(C)NC(=O)c2ccc3nc2N1CCCOc1ccnc2[nH]c(=O)n-3c12	–
7.6	< 0.5	68	679	17	< 0.5	12	3.1	296 (≈ 108 µg/mL)	CC1CCCOc2ccnc3[nH]c(=O)n(c23)-c2ccc3c(=O)ccn1c3n2 (configuration not stated)	–
–	–	–	–	11	–	–	7.4	54 (≈ 22.3 µg/mL)	C[C@H](c1ccccc1)N1c2cc(-n3c(=O)[nH]c4ncccc43)ccc2C(=O)NC1(C)C	–
6	< 0.1	57	487	–	0.1	65	0.9	25 (≈ 9.51 µg/mL)	CC1CCN2c3nc(ccc3C(=O)NC2(C)C)-n2c(=O)[nH]c3nccc(c32)O1 (configuration not stated)	Selectivity ratio [14]: 17900; Selectivity ratio [15]: 2450; Selectivity ratio [16]: 677; Selectivity ratio [17]: 5160; Selectivity ratio [18]: 25000; Selectivity ratio [19]: 253; Selectivity ratio [20]: 14500; Selectivity ratio [21]: 997; Selectivity ratio [22]: 2260; Selectivity ratio [23]: 1620; bioavailability [13]: 17%; Selectivity ratio [24]: 911; Selectivity ratio [25]: 4640; Selectivity ratio [26]: 5180
–	–	–	–	6	–	–	0.2	0.9 (≈ 0.314 µg/mL)	O=c1ccn2c3nc(ccc13)-n1c(=O)[nH]c3nccc(c31)OCCCC2	–
–	–	–	–	< 1	–	–	–	4 (≈ 1.38 µg/mL)	CN1CCCCOc2ccnc3[nH]c(=O)n(c23)-c2cc1ccc2Cl	–
–	–	–	–	–	–	–	0.3	9 (≈ 3.29 µg/mL)	CC1(C)NC(=O)c2ccc3cc2N1CCCOc1ccnc2[nH]c(=O)n-3c12	–
–	–	–	–	–	–	–	0.1	1.5 (≈ 0.571 µg/mL)	CC1(C)NC(=O)c2ccc3nc2N1CCCCOc1ccnc2[nH]c(=O)n-3c12	–
–	9.2	> 10000	–	12	–	0.9	15	3 (≈ 0.895 µg/mL)	O=c1[nH]c2nccc3c2n1-c1cccc(n1)OCCCCO3	–
